System: P23H opsin
Test: Rhodopsin purification and regeneration (P23H cells treated with compound, regenerated with 9-cis-retinal, 480-500 nm absorbance)
Conditions: FIG. 1; P23H opsin treated with 20 μM during mutant protein production, relative to vehicle (DMSO) alone

CC(=O)/C=C/C1=C(C)CCCC1(C)C [β-ionone, reference compound]
regeneration of 500 nm absorbing pigment upon treatment with retinal: increase

Reference: patent publication US9457004B2, “Opsin-binding ligands, compositions and methods of use” (priority 2011, dated 2016)
